Measured values published in patent US8957064B2, “Fused pyrimidines” (Bayer Intellectual Property GmbH, priority 2009, dated 2015).

Experiments:
[1] = molecular target: His-tagged human recombinant kinase full-length Akt1 (Homo sapiens (Human), UniProt P31749); assay: Akt1 kinase assay (Akt1 TR-FRET assay, Biological Assay 1.0); format: biochemical; conditions: 10 μM ATP, 1 μM biotinylated peptide substrate, 60 min at 22° C.
Outline: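 Insect-cell-expressed full-length His-Akt1 (~0.05 ng/μl) preincubated 15 min with compound, then reacted 60 min at 22 °C with 10 μM ATP and 1 μM biotinylated peptide (final), pH 7.5. Phosphopeptide detected by HTRF (665/620 nm ratio). Data normalised to no-inhibitor and no-enzyme controls.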

[2] = molecular target: His-tagged human recombinant kinase full-length Akt2 activated by PDK1 (Homo sapiens (Human), UniProt P31751); assay: Akt2 kinase assay (Akt2 TR-FRET assay, Biological Assay 2.0); format: biochemical; conditions: 10 μM ATP, 1 μM biotinylated peptide substrate, 60 min at 22° C.
Sequence of His-tagged human recombinant kinase full-length Akt2 activated by PDK1 (P31751 whole entry): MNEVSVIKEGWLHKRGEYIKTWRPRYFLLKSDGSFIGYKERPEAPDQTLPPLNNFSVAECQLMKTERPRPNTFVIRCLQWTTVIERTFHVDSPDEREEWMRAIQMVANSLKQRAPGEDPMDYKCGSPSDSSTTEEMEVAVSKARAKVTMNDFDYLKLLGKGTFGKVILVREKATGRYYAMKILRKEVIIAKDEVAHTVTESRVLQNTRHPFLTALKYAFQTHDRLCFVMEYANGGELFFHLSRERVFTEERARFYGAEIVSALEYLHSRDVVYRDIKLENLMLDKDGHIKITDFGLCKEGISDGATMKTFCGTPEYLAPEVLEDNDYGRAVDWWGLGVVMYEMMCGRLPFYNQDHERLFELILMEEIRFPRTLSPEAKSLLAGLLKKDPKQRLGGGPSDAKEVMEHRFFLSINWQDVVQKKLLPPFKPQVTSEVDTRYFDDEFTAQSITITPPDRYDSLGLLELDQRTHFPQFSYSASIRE
Outline: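 Compound was pre-incubated with enzyme (~0.2 ng/µl final) for 15 min at 22 °C in Tris pH 7.5, 5 mM MgCl2, then reacted 60 min with 10 µM ATP and 1 µM biotinylated peptide. Phosphopeptide was detected by TR-FRET (665/622 nm ratio). Data were normalised to no-inhibitor (0%) and no-enzyme (100%) controls.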

Sequence of His-tagged human recombinant kinase full-length Akt1 (P31749 whole entry): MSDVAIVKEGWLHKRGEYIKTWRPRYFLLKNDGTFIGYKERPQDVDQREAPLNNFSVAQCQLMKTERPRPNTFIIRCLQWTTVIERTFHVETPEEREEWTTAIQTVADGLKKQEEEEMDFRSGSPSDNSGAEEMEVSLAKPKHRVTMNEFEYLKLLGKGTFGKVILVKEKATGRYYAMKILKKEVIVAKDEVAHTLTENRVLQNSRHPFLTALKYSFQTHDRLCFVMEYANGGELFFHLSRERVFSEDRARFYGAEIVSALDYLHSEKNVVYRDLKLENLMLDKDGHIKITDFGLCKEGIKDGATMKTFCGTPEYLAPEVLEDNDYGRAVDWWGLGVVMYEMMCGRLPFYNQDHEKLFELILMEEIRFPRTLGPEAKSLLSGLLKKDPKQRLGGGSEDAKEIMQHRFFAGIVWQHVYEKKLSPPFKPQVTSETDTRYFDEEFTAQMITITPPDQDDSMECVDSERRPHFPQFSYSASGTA

Structure (SMILES)	IC50 [1]	IC50 [2]
CCc1cnn2cc(-c3ccccc3)c(-c3ccc(CN4CC(c5n[nH]c(-c6cccc(C)n6)n5)C4)cc3)nc12 [Example 42.0, 3-ethyl-5-(4-{3-[5-(6-methyl-pyridin-2-yl)-1H-[1,2,4]triazol-3-yl]-azetidin-1-ylmethyl}-phenyl)-6-phenyl-pyrazolo[1,5-a]pyrimidine]	5 nM	19 nM
Cc1cccc(-c2nc(C3CCN(Cc4ccc(-c5nc6nc(C)nn6cc5-c5ccc(F)cc5F)cc4)CC3)n[nH]2)n1 [Example 50.1, 6-(2,4-difluorophenyl)-2-methyl-5-(4-{4-[5-(6-methylpyridine-2-yl)-1H-[1,2,4]triazole-3-yl]-piperidine-1-ylmethyl}-phenyl)-[1,2,4]triazolo[1,5-a]pyrimidine]	62 nM	108 nM
Cc1cccc(-c2nc(C3CCN(Cc4ccc(-c5nc6nccn6cc5-c5ccc(F)cc5)cc4)CC3)n[nH]2)n1 [Example 52.0, 6-(4-fluorophenyl)-7-(4-{4-[5-(6-methylpyridine-2-yl)-1H-[1,2,4]triazole-3-yl]-piperidine-1-ylmethyl}-phenyl)-imidazo[1,2-a]pyrimidine formiate]	9 nM	17 nM
Cc1cccc(-c2nc(C3CCN(Cc4ccc(-c5nc6nccn6cc5-c5ccccc5F)cc4)CC3)n[nH]2)n1 [Example 54.0, 6-(2-fluorophenyl)-7-(4-{4-[5-(6-methylpyridine-2-yl)-1H-[1,2,4]triazole-3-yl]-piperidine-1-ylmethyl}-phenyl)-imidazo[1,2-a]pyrimidine]	3 nM	17 nM
c1ccc(-c2cn3ccnc3nc2-c2ccc(CN3CCC(c4cnc5ccccc5n4)CC3)cc2)cc1 [Example 10.0, 2-{1-[4-(6-phenyl-imidazo[1,2-a]pyrimidin-7-yl)-benzyl]-piperidine-4-yl}-quinoxaline]	4 nM	9 nM
CC(C)Nc1c(-c2ccccc2)c(-c2ccc(CN3CC(c4n[nH]c(-c5ccccn5)n4)C3)cc2)nc2nc(-c3ccccn3)nn12 [Example 68.0]	24 nM	88 nM
COC(=O)c1cnn2cc(-c3c(F)cccc3F)c(-c3ccc(CN4CC(c5n[nH]c(-c6ccccn6)n5)C4)cc3)nc12 [Example 28.0, 6-(2,6-difluorophenyl)-5-(4-{3-[5-(pyridine-2-yl)-1H-[1,2,4]triazole-3-yl]-azetidine-1-ylmethyl}-phenyl)-pyrazolo[1,5-a]pyrimidine-3-carboxylic acid methyl ester]	14 nM	761 nM
Cc1nc2nc(-c3ccc(CN4CC(c5n[nH]c(-c6ccccn6)n5)C4)cc3)c(-c3ccccc3)cn2c1Br [Example 26.0, 3-bromo-2-methyl-6-phenyl-7-{4-[3-(5-pyridine-2-yl-1H-[1,2,4]triazole-3-yl]-azetidine-1-ylmethyl]-phenyl}-imidazo[1,2-a]pyrimidine]	4 nM	4 nM
CNc1c(-c2ccccc2)c(-c2ccc(CN3CC(c4n[nH]c(-c5ccccn5)n4)C3)cc2)nc2nc(C)cn12 [Example 60.0, methyl-(2-methyl-6-phenyl-7-{4-{3-[5-(pyridine-2-yl)-1H-[1,2,4]triazole-3-yl)-azetidine-1-ylmethyl]-phenyl}-imidazo[1,2-a]pyrimidin-5-yl)-amine]	16 nM	55 nM
Cc1cn2c(NC(C)C)c(-c3ccccc3)c(-c3ccc(CN4CC(c5n[nH]c(-c6ccccn6)n5)C4)cc3)nc2n1 [Example 64.0, isopropyl-(2-methyl-6-phenyl-7-{4-{3-[5-(pyridine-2-yl)-1H-[1,2,4]triazole-3-yl)-azetidine-1-ylmethyl]-phenyl}-imidazo[1,2-a]pyrimidin-5-yl)-amine]	30 nM	39 nM
COc1nn2cc(-c3c(F)cccc3F)c(-c3ccc(CN4CC(c5n[nH]c(-c6cccc(C)n6)n5)C4)cc3)nc2c1CO [Example 63.1]	8 nM	34 nM
Fc1ccc(-c2cn3c(Cl)cnc3nc2-c2ccc(CN3CCC(c4n[nH]c(-c5ccccn5)n4)CC3)cc2)cc1 [Example 53.1, 3-chloro-6-(4-fluorophenyl)-7-{4-[4-(5-pyridine-2-yl-1H-[1,2,4]triazole-3-yl)-piperidine-1-ylmethyl]-phenyl}-imidazo[1,2-a]pyrimidine]	25 nM	33 nM
CSc1nc2nc(-c3ccc(CN4CCC(c5n[nH]c(-c6ncccn6)n5)CC4)cc3)c(-c3ccccc3)cn2n1 [Example 72.2, 2-methylsulfanyl-6-phenyl-5-{4-[4-(5-pyrimidin-2-yl-1H-[1,2,4]triazol-3-yl)-piperidin-1-ylmethyl]-phenyl}-[1,2,4]triazolo[1,5-a]pyrimidine]	77 nM	222 nM
Cc1cccc(-c2nc(C3CCN(Cc4ccc(-c5nc6ncc(Br)n6cc5-c5ccc(F)cc5)cc4)CC3)n[nH]2)n1 [Example 53.0, 3-bromo-6-(4-fluorophenyl)-7-(4-{4-[5-(6-methylpyridine-2-yl)-1H-[1,2,4]triazole-3-yl]-piperidine-1-ylmethyl}-phenyl)-imidazo[1,2-a]pyrimidine]	11 nM	7 nM
Cc1cccc(-c2nc(C3CN(Cc4ccc(-c5nc6nc(C)cn6cc5-c5ccccc5)cc4)C3)n[nH]2)n1 [Example 38.0, 2-methyl-7-(4-{3-[5-(6-methylpyridine-2-yl)-1H-[1,2,4]triazole-3-yl]-azetidine-1-ylmethyl}-phenyl)-6-phenyl-imidazo[1,2-a]pyrimidine]	13 nM	16 nM
COC(=O)c1cnn2cc(-c3c(F)cccc3F)c(-c3ccc(CN4CCC(c5n[nH]c(-c6ccccn6)n5)CC4)cc3)nc12 [Example 48.1, 6-(2,6-difluorophenyl)-5-(4-{4-[5-(pyridine-2-yl)-1H-[1,2,4]triazole-3-yl]-piperidine-1-ylmethyl}-phenyl)-pyrazolo[1,5-a]pyrimidine-3-carboxylic acid methyl ester]	5 nM	203 nM
Clc1cnc2nc(-c3ccc(CN4CC(c5nnc(-c6ccccn6)[nH]5)C4)cc3)c(-c3ccccc3)cn12 [Example 5.0, 3-Chloro-6-phenyl-7-(4-{[3-(5-pyridin-2-yl-1,2,4-triazol-3-yl)azetidin-1-yl]methyl}phenyl)imidazo[1,2-a]pyrimidine]	6 nM	11 nM
Cc1cccc(-c2nc(C3CN(Cc4ccc(-c5nc6nc(C(C)C)nn6cc5-c5ccccc5)cc4)C3)n[nH]2)n1 [Example 31.0, 2-isopropyl-5-(4-{3-[5-(6-methyl-pyridine-2-yl)-1H-[1,2,4]triazolo-3-yl]-azetidine-1-ylmethyl}-phenyl)-6-phenyl-[1,2,4]triazolo[1,5-a]pyrimidine]	70 nM	14 nM
Cc1cccc(-c2nc(C3CN(Cc4ccc(-c5nc6nc(C7CC7)nn6cc5-c5ccccc5)cc4)C3)n[nH]2)n1 [Example 41.0, 2-cyclopropyl-5-(4-{3-[5-(6-methylpyridine-2-yl)-1H-[1,2,4]triazole-3-yl]-azetidine-1-ylmethyl}-phenyl)-6-phenyl-[1,2,4]triazolo[1,5-a]pyrimidine]	10 nM	10 nM
COc1nn2cc(-c3c(F)cccc3F)c(-c3ccc(CN4CC(c5n[nH]c(-c6ccccn6)n5)C4)cc3)nc2c1CO [Example 63.0, (6-(2,6-difluorophenyl)-2-methoxy-5-{4-[3-[5-pyridine-2-yl-1H-[1,2,4]triazole-3-yl)-azetidine-1-ylmethyl]-phenyl}-pyrazolo[1,5-a]pyrimidin-3-yl)-methanol]	14 nM	118 nM
c1ccc(-c2cn3nccc3nc2-c2ccc(CN3CCC(c4nc5cccnc5[nH]4)CC3)cc2)cc1 [Example 16.0, 2-{1-[4-(6-phenyl-pyrazolo[1,5-a]pyrimidin-5-yl)-benzyl]-piperidin-4-yl}-3H-imidazo[4,5-b]pyridine]	42 nM	1080 nM
Cc1cccc(-c2nc(C3CCN(Cc4ccc(-c5nc6nc(C)nn6cc5-c5cccc(F)c5)cc4)CC3)n[nH]2)n1 [Example 49.0, 6-(3-fluorophenyl)-2-methyl-5-(4-{4-[5-(6-methylpyridine-2-yl)-1H-[1,2,4]triazole-3-yl]-piperidine-1-ylmethyl}-phenyl)-[1,2,4]triazolo[1,5-a]pyrimidine]	13 nM	37 nM
CNc1c(-c2ccccc2)c(-c2ccc(CN3CC(c4n[nH]c(-c5cccc(C)n5)n4)C3)cc2)nc2nc(C)cn12 [Example 61.0, methyl-(2-methyl-7-{4-{3-[5-(6-methylpyridine-2-yl)-1H-[1,2,4]triazole-3-yl)-azetidine-1-ylmethyl]-phenyl}-6-phenyl-imidazo[1,2-a]pyrimidin-5-yl)-amine]	11 nM	19 nM
OCc1cn2cc(-c3ccccc3)c(-c3ccc(CN4CC(c5n[nH]c(-c6ccccn6)n5)C4)cc3)nc2n1 [Example 75.0]	72 nM	124 nM
CSc1nc2nc(-c3ccc(CN4CC(c5n[nH]c(-c6cccc(C)n6)n5)C4)cc3)c(-c3ccccc3)cn2n1 [Example 71.0, 5-(4-{3-[5-(6-methyl-pyridin-2-yl)-1H-[1,2,4]triazol-3-yl]-azetidin-1-ylmethyl}-phenyl)-2-methylsulfanyl-6-phenyl-[1,2,4]triazolo[1,5-a]pyrimidine]	5 nM	4 nM
Cc1nc2nc(-c3ccc(CN4CCC(c5n[nH]c(-c6ccccn6)n5)CC4)cc3)c(-c3cc(F)ccc3F)cn2n1 [Example 76.0, 6-(2,5-difluorophenyl)-2-methyl-5-{4-[4-(5-pyridine-2-yl-1H-[1,2,4]triazole-3-yl)-piperidine-1-ylmethyl]-phenyl}-[1,2,4]triazolo[1,5-a]pyrimidine]	60 nM	154 nM
